Experimental data as given in EP3325465B1, “PESTICIDALLY ACTIVE PYRAZOLE DERIVATIVES” (Syngenta Participations AG, priority 2015, dated 2017).
Like-named read-outs stand apart in the source and are kept apart here.

Key:
Format in all cases: in vivo
[1] = system: Diabrotica balteata, (Corn root worm); experiment: Diabrotica balteata maize sprout spray test, L2 larvae; details: 96 h
Excerpt: (§1) The pesticidal/insecticidal properties of the compounds according to embodiments 1 or 2 can be illustrated via the following tests: Spodoptera littoralis (Egyptian cotton leaf worm) • Cotton leaf discs were placed onto agar in 24-well microtiter plates and sprayed with aqueous test solutions prepared from 10'000 ppm DMSO stock solutions. After drying the leaf discs were infested with five L1 larvae. […] Plutella xylostella (Diamond back moth): 24-well microtiter plates with artificial diet were treated with aqueous test solutions prepared from 10'000 ppm DMSO stock solutions by pipetting. After drying, the plates were infested with L2 larvae (10 to 15 per well). The samples were assessed for mortality and growth inhibition in comparison to untreated samples 5 days after infestation. […] Diabrotica balteata, (Corn root worm) • Maize sprouts placed onto an agar layer in 24-well microtiter plates were treated with aqueous test solutions prepared from 10'000 ppm DMSO stock solutions by spraying. After drying, the plates were infested with L2 larvae (6 to 10 per well). […] Thrips tabaci (Onion thrips): Sunflower leaf discs were placed on agar in 24-well microtiter plates and sprayed with aqueous test solutions prepared from 10'000 ppm DMSO stock solutions. After drying the leaf discs were infested with a thrips population of mixed ages. The samples were assessed for mortality 6 days after infestation. […] Tetranychus urticae (Two-spotted spider mite): Bean leaf discs on agar in 24-well microtiter plates were sprayed with aqueous test solutions prepared from 10'000 ppm DMSO stock solutions. After drying the leaf discs were infested with a mite population of mixed ages. The samples were assessed for mortality on mixed population (mobile stages) 8 days after infestation. […] Euschistus heros (Neotropical Brown Stink Bug): • Two weeks old soybean plants were sprayed in a turn table spray chamber with the diluted spray solutions. After drying 2 soybean seeds were added and plants were infested with 10 N2 nymphs of the neotropical brown stink bug Euschistus heros in plastic test boxes. The samples were assessed for mortality in comparison to untreated samples 5 days after infestation. • The following compounds gave at least 80% mortality of Euschistus heros at an application rate of 12.5 ppm: Compounds 3 , 4 , 8 , 39 , 43 , 44 , 46 , 75 , 76 , 77 , 78 , 79 , 80 , 81 , 82 , 88 , 90 , 93 and 95 . Myzus persicae (Green peach aphid): Sunflower leaf discs were placed on agar in a 24-well microtiter plate and sprayed with test solutions at an application rate of 200 ppm. After drying, the leaf discs were infested with an aphid population of mixed ages. After an incubation period of 6 DAT, samples were checked for mortality. The following compounds gave at least 50% mortality of Myzus persicae: Compounds 3 , 4 , 8 , 43 , 44 , 75 , 76 , 77 , 80 , 81 , 90 and 92 . Myzus persicae (Green peach aphid): • Test compounds were applied by pipette into 24 well plates and mixed with Sucrose solution. Application rate: 12.5ppm. The plates were closed with a stretched parafilm. A plastic stencil with 24 holes is placed onto the plate and infested pea seedlings were placed directly on the Parafilm. The infested plate is closed with a gel blotting paper and another plastic stencil and then turned upside down. […]

[2] = system: Plutella xylostella (Diamond back moth); experiment: Plutella xylostella artificial diet test, L2 larvae; details: 120 h, application rate of 200 ppm, mortality and growth inhibition 5 days after infestation
Excerpt: as §1

[3] = system: Spodoptera littoralis (Egyptian cotton leaf worm); experiment: Spodoptera littoralis cotton leaf disc spray test, L1 larvae; details: foliar, 72 h
Excerpt: as §1

[4] = system: Tetranychus urticae (Two-spotted spider mite); experiment: Tetranychus urticae bean leaf disc spray test; details: foliar, 192 h, application rate of 200 ppm, mortality on mixed population (mobile stages) 8 days after infestation
Excerpt: as §1

[5] = system: Thrips tabaci (Onion thrips); experiment: Thrips tabaci sunflower leaf disc spray test; details: foliar, 144 h, application rate of 200 ppm, mortality 6 days after infestation, mixed ages
Excerpt: as §1

[6] = application rate of 200 ppm, 4 days after infestation, L2 larvae, read-out: mortality
[7] = application rate of 200 ppm, 3 days after infestation, L1 larvae, read-out: mortality

Cn1nc(C(F)(F)C(F)(F)F)c(C(F)(F)F)c1-c1noc(-c2ccc(Cl)c(C(=O)NC3CC3)c2)n1 [Compound 9, 2-chloro-N-cyclopropyl-5-[3-[2-methyl-5-(1,1 ,2,2,2-pentafluoroethyl)-4-(trifluoromethyl)pyrazol-3-yl]-1,2,4-oxadiazol-5-yl]benzamide]
≥ 80%: mortality at 200 ppm [1, 6]

Cn1nc(C(F)(F)C(F)(F)F)c(C(F)(F)F)c1-c1nc(-c2ccc(Cl)c(C(=O)NC3CC3)c2)no1 [Compound 21, 2-chloro-N-cyclopropyl-5-[5-[2-methyl-5-(1,1,2,2,2-pentafluoroethyl)-4-(trifluoromethyl)pyrazol-3-yl]-1,2,4-oxadiazol-3-yl]benzamide]
≥ 80%: pest or weed control at 200 ppm [2]

Cn1nc(C(F)(F)C(F)(F)F)c(C(F)(F)F)c1-c1ncn(-c2ccc(Cl)c(C(=O)NC3CC3)c2)n1 [Compound 35, 2-chloro-N-cyclopropyl-5-[3-[2-methyl-5-(1,1,2,2,2-pentafluoroethyl)-4-(trifluoromethyl)pyrazol-3-yl]-1,2,4-triazol-1-yl]benzamide]
≥ 80%: mortality at 200 ppm [3, 7] | pest or weed control at 200 ppm [2]

Cn1nc(-c2c(C(F)(F)F)c(C(F)(F)C(F)(F)F)nn2C)cc1-c1ccc(Cl)c(C(=O)NC2CC2)c1 [Compound 41, 2-chloro-N-cyclopropyl-5-[2-methyl-5-[2-methyl-5-(1,1,2,2,2-pentafluoroethyl)-4-(trifluoromethyl)pyrazol-3-yl]pyrazol-3-yl]benzamide]
≥ 80%: pest or weed control at 200 ppm [4] | mortality at 200 ppm [3, 7] | pest or weed control at 200 ppm [2] | mortality at 200 ppm [1, 6] | pest or weed control at 200 ppm [5]

Cn1nc(C(F)(F)C(F)(F)F)c(C(F)(F)F)c1-c1ncc(-c2ccc(Cl)c(C(=O)NC3CC3)c2)s1 [Compound 47, 2-chloro-N-cyclopropyl-5-[2-[2-methyl-5-(1,1 ,2,2,2-pentafluoroethyl)-4-(trifluoromethyl)pyrazol-3-yl]thiazol-5-yl]benzamide]
≥ 80%: mortality at 200 ppm [3, 7] | pest or weed control at 200 ppm [2] | mortality at 200 ppm [1, 6]

Cn1nc(C(F)(F)C(F)(F)F)c(C(F)(F)F)c1-c1ncc(-c2ccc(Cl)c(C(=O)NC3(C#N)CC3)c2)s1 [Compound 48, 2-chloro-N-(1-cyanocyclopropyl)-5-[2-[2-methyl-5-(1,1,2,2,2-pentafluoroethyl)-4-(trifluoromethyl)pyrazol-3-yl]thiazol-5-yl]benzamide]
≥ 80%: pest or weed control at 200 ppm [4] | mortality at 200 ppm [3, 7] | pest or weed control at 200 ppm [2] | mortality at 200 ppm [1, 6] | pest or weed control at 200 ppm [5]

Cn1nc(C(F)(F)C(F)(F)F)c(C(F)(F)F)c1-c1csc(-c2ccc(Cl)c(C(=O)NC3CC3)c2)n1 [Compound 49, 2-chloro-N-cyclopropyl-5-[4-[2-methyl-5-(1,1 ,2,2,2-pentafluoroethyl)-4-(trifluoromethyl)pyrazol-3-yl]thiazol-2-yl]benzamide]
≥ 80%: mortality at 200 ppm [3, 7] | pest or weed control at 200 ppm [2] | mortality at 200 ppm [1, 6]

Cn1nc(C(F)(F)C(F)(F)F)c(C(F)(F)F)c1-c1nc(-c2ccc(Cl)c(C(=O)NC3CC3)c2)cs1 [Compound 53, 2-chloro-N-cyclopropyl-5-[2-[2-methyl-5-(1,1 ,2,2,2-pentafluoroethyl)-4-(trifluoromethyl)pyrazol-3-yl]thiazol-4-yl]benzamide]
≥ 80%: pest or weed control at 200 ppm [2]

Cn1nc(C(F)(F)C(F)(F)F)c(C(F)(F)F)c1-c1nc(-c2ccc(Cl)c(C(=O)NC3(C#N)CC3)c2)cs1 [Compound 54, 2-chloro-N-(1-cyanocyclopropyl)-5-[2-[2-methyl-5-(1,1,2,2,2-pentafluoroethyl)-4-(trifluoromethyl)pyrazol-3-yl]thiazol-4-yl]benzamide]
≥ 80%: pest or weed control at 200 ppm [4] | mortality at 200 ppm [3] | pest or weed control at 200 ppm [2] | mortality at 200 ppm [1] | pest or weed control at 200 ppm [5]

Cn1nc(C(F)(F)C(F)(F)F)c(C(F)(F)F)c1-c1c[nH]c(-c2ccc(Cl)c(C(=O)NC3(C#N)CC3)c2)n1 [Compound 70, 2-chloro-N-(1-cyanocyclopropyl)-5-[4-[2-methyl-5-(1,1,2,2,2-pentafluoroethyl)-4-(trifluoromethyl)pyrazol-3-yl]-1H-imidazol-2-yl]benzamide]
≥ 80%: pest or weed control at 200 ppm [2]

Cn1nc(C(F)(F)C(F)(F)F)c(C(F)(F)F)c1-c1cc(-c2ccc(Cl)c(C(=O)NC3CC3)c2)[nH]n1 [Compound 73, 2-chloro-N-cyclopropyl-5-[3-[2-methyl-5-(1,1,2,2,2-pentafluoroethyl)-4-(trifluoromethyl)pyrazol-3-yl]-1H-pyrazol-5-yl]benzamide]
≥ 80%: pest or weed control at 200 ppm [4] | mortality at 200 ppm [3, 7]

Cn1nc(C(F)(F)C(F)(F)F)c(C(F)(F)F)c1-c1cc(-c2ccc(Cl)c(C(=O)NCCC(F)(F)F)c2)on1 [Compound 83, 2-chloro-5-[3-[2-methyl-5-(1,1,2,2,2-pentafluoroethyl)-4-(trifluoromethyl)pyrazol-3-yl]isoxazol-5-yl]-N-(3,3,3-trifluoropropyl)benzamide]
≥ 80%: mortality at 200 ppm [3, 7] | pest or weed control at 200 ppm [2] | mortality at 200 ppm [1, 6] | pest or weed control at 200 ppm [5]

Cn1nc(C(F)(F)C(F)(F)F)c(C(F)(F)F)c1-c1cc(-c2ccc(Cl)c(C(=O)NCC=C(Cl)Cl)c2)on1 [Compound 84, 2-chloro-N-(3,3-dichloroallyl)-5-[3-[2-methyl-5-(1,1,2,2,2-pentafluoroethyl)-4-(trifluoromethyl)pyrazol-3-yl]isoxazol-5-yl]benzamide]
≥ 80%: pest or weed control at 200 ppm [4] | pest or weed control at 200 ppm [2] | mortality at 200 ppm [1, 6] | pest or weed control at 200 ppm [5]

Cn1nc(C(F)(F)C(F)(F)F)c(C(F)(F)F)c1-c1cc(-c2ccc(Cl)c(C(=O)Nc3ccc(Cl)cc3)c2)on1 [Compound 85, 2-chloro-N-(4-chlorophenyl)-5-[3-[2-methyl-5-(1,1,2,2,2-pentafluoroethyl)-4-(trifluoromethyl)pyrazol-3-yl]isoxazol-5-yl]benzamide]
≥ 80%: pest or weed control at 200 ppm [4]

C=C(F)CNC(=O)c1cc(-c2cc(-c3c(C(F)(F)F)c(C(F)(F)C(F)(F)F)nn3C)no2)ccc1Cl [Compound 86, 2-ch loro-N-(2-fluoroallyl)-5-[3-[2-methyl-5-(1,1,2,2,2-pentafluoroethyl)-4-(trifluoromethyl)pyrazol-3-yl]isoxazol-5-yl]benzamide]
≥ 80%: pest or weed control at 200 ppm [4] | mortality at 200 ppm [3, 7] | pest or weed control at 200 ppm [2] | mortality at 200 ppm [1, 6] | pest or weed control at 200 ppm [5]

CC(C)CNC(=O)c1cc(-c2cc(-c3c(C(F)(F)F)c(C(F)(F)C(F)(F)F)nn3C)no2)ccc1Cl [Compound 87, 2-chloro-N-isobutyl-5-[3-[2-methyl-5-(1,1,2,2,2-pentafluoroethyl)-4-(trifluoromethyl)pyrazol-3-yl]isoxazol-5-yl]benzamide]
≥ 80%: pest or weed control at 200 ppm [4] | mortality at 200 ppm [3, 7] | pest or weed control at 200 ppm [2] | mortality at 200 ppm [1, 6] | pest or weed control at 200 ppm [5]

Cn1nc(C(F)(F)C(F)(F)F)c(C(F)(F)F)c1-c1cc(-c2ccc(Cl)c(C(=O)NCc3ccccc3)c2)on1 [Compound 91, N-benzyl-2-chloro-5-[3-[2-methyl-5-(1,1,2,2,2-pentafluoroethyl)-4-(trifluoromethyl)pyrazol-3-yl]isoxazol-5-yl]benzamide]
≥ 80%: pest or weed control at 200 ppm [4] | pest or weed control at 200 ppm [2] | mortality at 200 ppm [1, 6] | pest or weed control at 200 ppm [5]
